# How the values were obtained:
# [1] = target: T1, Human Adenosine A2a Receptor (Homo sapiens, UniProt P29274); assay: Human adenosine A2a receptor calcium flow detection experiment (FLIPR, Fluo-4, NECA agonist); format: cell-based; details: A2a stable CHO cell line, antagonist mode vs NECA at EC80
# T1 construct: host or cells: CHO
# Method: Human Adenosine A2a Receptor Calcium Flow Detection Experiment
# A2a stable cell line was constructed by Shanghai Wuxi Apptec, and the host cell was CHO.
# Fluo-4 Direct kit (Invitrogen, article number: F10471). After the fluorescence detection reagent (specifically binding to calcium ions and causing an increase of fluorescence signal) in the kit was incubated with the cells for an appropriate time, the compound was added to stimulate the cells and induced changes in intracellular calcium flow, thus causing the changes in fluorescence signal, which can reflect the intensity of the agonistic or inhibiting activity of the compounds.
# F12+10% fetal bovine serum+geneticin 300 μg/mL+blasticidin 2 μg/mL
# Hanks balanced salt buffer (Invitrogen)+20 mM HEPES, which was prepared before each use
# The compounds to be tested were dissolved in DMSO to prepare a 10 mM mother liquor. The test compound was diluted to 0.2 mM with DMSO, and the reference compound CGS-15943 was diluted to 0.015 mM with DMSO. Then a 10-point 3-fold serial dilution was performed with ECHO, then 900 nL of the dilutions was transferred to a compound plate (Greiner-781280), and 30 μL of the compound dilution buffer was added. The final initial concentration of the compounds to be tested was 1 μM and that of CGS-15943 was 0.075 μM.
# Frozen A2A cells were suspended to 1×10^6 cells/mL with the culture medium after resuscitation, seeded with 20 μL/well into a 384-well polylysine coated cell plate (Greiner-781946), then incubated under 5% CO2 at 37° C. overnight.
# The cell plate prepared the day before was taken out from the incubator, 20 μL 2×Fluo-4 Direct™ buffer was added into each cell, then incubated under 5% CO2 at 37° C. in an incubator for 50 minutes, and was allowed to stand at room temperature for 10 minutes.
# Dilution of the agonist NECA: NECA with an initial concentration of 0.15 mM was 3-fold serially diluted with Echo to prepare 10 dilutions, and then 900 nL of the dilutions was transferred to the corresponding compound plate; then 30 μL of the compound dilution buffer was added into the corresponding compound plate. The final initial concentration was 750 nM.
# FLIPR instrument and software were performed according to the set program, 10 μL of the compound dilution buffer was added into the cell plate, and the fluorescence signal was read. 10 μL of the agonist reference compound with a predetermined concentration was added to the cell plate and the fluorescence signal was read. After reading, the data were exported by “Max-Min” and “Read 90 to Maximum allowed” methods in the software, the EC80 on A2A cell line was calculated, and 6×EC80 concentration of agonist was prepared. The agonist reference compound with a concentration of 6×EC80 was prepared with buffer salt solution, and 30 μL/well was aliquoted into the corresponding compound plate for later use.
# FLIPR instrument and software were performed according to the set program, 10 μL of test compounds and reference compound with a predetermined concentration was added into the cell plate, and the fluorescence signal was read. 10 μL of the agonist reference compound with a concentration of 6×EC80 was added into the cell plate and the fluorescence signal was read. For the agonist detection of the compounds, the data were exported by “Max-Min” and “Read 1 to 90” methods in the software. For the antagonist detection of the compounds, the data were exported by “Max-Min” and “Read 90 to Maximum allowed” methods in the software. The data were analyzed by GraphPad Prism 5.0 and the IC50 value of the test compounds was calculated.
# [2] = Pharmacokinetic evaluation after single intravenous injection and single oral administration in mice; format: in vivo; details: mouse, female Balb/C mice, plasma, single IV / single PO study; for clearance: read-out: Clearance rate; for AUC: read-out: Concentration integral AUC; for half-life: read-out: Half-life T1/2 (converted); for bioavailability: read-out: Bioavailability F
# Method: Experimental materials: Balb/C mice (female, 15-30 g, 7-9 weeks old, Shanghai Linchang) were used.
# Experimental method: The pharmacokinetic characteristics of the compound after intravenous injection and oral administration were tested on rodents by standard scheme, in the experiment, the candidate compounds were prepared into clear solutions and administrated to mice by single intravenous injection and single oral administration. Intravenous injection (IV) menstruum was a mixed solvent of 5% DMSO/5% polyethylene glycol hydroxystearate/90% water, and oral (PO) menstruum was a mixed solvent of 1% Tween 80, 9% PEG400 and 90% water (pH=3). The whole blood sample within 48 hours was collected, centrifuged at 3000 g at 4° C. for 15 minutes, and the supernatant was separated to obtain the plasma sample. An acetonitrile solution containing internal standard with a volume of 20 times that of the plasma sample was added to precipitate protein, the supernatant was centrifuged and an equal volume of water was added, then the supernatant was taken for injection. The blood drug concentration was quantitatively analyzed by LC-MS/MS analysis method, and the pharmacokinetic parameters such as peak concentration, peak time, clearance rate, half-life, area under the drug concentration-time curve, bioavailability, etc. were calculated.
# [3] = test system: mouse colon cancer CT26 cells; assay: In vivo pharmacodynamic test, CT26 subcutaneous tumor model, alone or combined with CS1003; design: species or system BALB/C mice; details: CS1003 1 mg/kg intraperitoneal, Day 7, 10, 13, 16
# Method: Experimental materials: BALB/C mice (female); mouse colon cancer CT26 cells (Typical Culture Preservation Commission cell bank, Chinese Academy of Sciences) were cultured in vitro in monolayer with RPMI-1640 medium containing 10% fetal bovine serum in a 37° C., 5% CO2 incubator. Trypsin-EDTA was used for routine digestion and passage. When the cells were in exponential growth phase and the saturation was 80%-90%, the cells were collected and counted.
# Compound preparation: Embodiment 19 was weighted and added into the menstruum (10% PEG400+90% (10% Cremophor aqueous solution)) to prepare samples of 2.5 mg/mL, 5 mg/mL and 10 mg/mL respectively. 72 μL CS1003 (PD-1 antibody) solution (25 mg/mL) was taken and 1.728 mL Dulbecco's phosphate buffer (DPBS) was added to prepare a 1 mg/mL solution, then 16.2 mL DPBS was added to prepare a 0.1 mg/mL clear solution.
# Experimental operation: the cells were resuspended in Dulbecco's phosphate buffer at a density of 3×10^6 cells/mL. 0.1 mL DPBS (containing 3×10^5 CT26 cells) was subcutaneously inoculated on the right back of each mouse. On the day of inoculation, the mice were randomly divided into groups with 9 mice each group according to the weight of the mice, then administration was started and continued for 20 days. During the whole experiment, the animals were weighed and the animal's health was monitored every day, in case of any special situation, the person in charge of the relevant project would be informed in time and the corresponding records would be made. Tumor diameter was measured twice a week with a vernier caliper. The calculation formula of the tumor volume was: V=0.5×a×b^2, wherein a and b represent the long and short diameters of the tumor respectively.
# The antitumor effect of the compounds was evaluated by GI (%) or relative tumor proliferation rate T/C (%). Relative tumor proliferation rate T/C (%)=Vt/VC×100% (Vt: average tumor volume of treatment group; Vc: average tumor volume of negative control group). Vt and VC were the data on the same day. GI (%), tumor inhibition rate. GI (%)=1−Vt/VC×100%.
# Statistical analysis was conducted using SPSS software based on the relative tumor volume and tumor weight at the end of the experiment. […] P<0.05 was considered as significant difference.
# T1 sequence (P29274 whole entry): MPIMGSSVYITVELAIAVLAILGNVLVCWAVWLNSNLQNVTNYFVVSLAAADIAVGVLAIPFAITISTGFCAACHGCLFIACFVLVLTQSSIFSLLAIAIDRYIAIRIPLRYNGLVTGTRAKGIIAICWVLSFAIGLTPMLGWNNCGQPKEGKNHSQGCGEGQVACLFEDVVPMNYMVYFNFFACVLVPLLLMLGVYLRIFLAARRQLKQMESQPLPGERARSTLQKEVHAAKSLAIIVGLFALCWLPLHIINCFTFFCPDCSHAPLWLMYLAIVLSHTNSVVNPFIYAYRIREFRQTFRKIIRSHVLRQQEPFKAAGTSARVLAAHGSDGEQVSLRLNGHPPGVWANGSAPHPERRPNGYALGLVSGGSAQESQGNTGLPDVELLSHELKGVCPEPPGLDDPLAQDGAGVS
IC50 [1] [nM],Molecule,further results
6.1,Nc1ncc2cc(-c3c(-c4ccc(F)cc4)nc(N)c4nccnc34)ccc2n1 [Embodiment 16],
0.76,Nc1nc(-c2ccc(F)cc2)c(-c2ccc3ncncc3c2)c2nccnc12 [Embodiment 14],
9.2,Cc1cc(-c2c(-c3ccc(F)cc3)nc(N)c3nccnc23)cc(C(F)(F)F)n1 [Embodiment 10],
1.03,Cc1cc(-c2c(-c3ccc(C)o3)nc(N)c3nccnc23)cc(Cl)n1 [Embodiment 28],
1.14,Nc1nc(-c2ccc(F)cc2)c(-c2ccc3ncnn3c2)c2nccnc12 [Embodiment 6],clearance [2]: 5.87 mL/min/kg; AUC [2]: 24.1 µM·h; half-life [2]: 49.2 min
0.82,Nc1nc(-c2ccc(F)cc2)c(-c2cc(Cl)c3[nH]ncc3c2)c2nccnc12 [Embodiment 21],
0.92,Nc1nc(-c2ccc(F)cc2)c(-c2ccc3ncccc3c2)c2nccnc12 [Embodiment 4],
38,Nc1nc(-c2ccc(F)cc2)c(-c2ccc3[nH]nc(Cl)c3c2)c2nccnc12 [Embodiment 22],
5.52,Cc1cc(-c2c(-c3ccc(F)cc3)nc(N)c3ncccc23)cc(Cl)n1 [Embodiment 24],
1.56,Nc1nc(-c2ccc(F)cc2)c(-c2ccc3ncnn3c2)c2ncccc12 [Embodiment 12],bioavailability [2]: 95.4%; clearance [2]: 1.72 mL/min/kg; AUC [2]: 259 µM·h; half-life [2]: 197 min
0.95,Nc1nc(-c2ccc(F)cc2)c(-c2ccc3ncsc3c2)c2nccnc12 [Embodiment 23],
0.35,Nc1nc(-c2ccc(Cl)o2)c(-c2ccc3ncnn3c2)c2nccnc12 [Embodiment 30],
3.32,Nc1nc(-c2ccc(F)cc2)c(-c2ccc3[nH]ncc3c2)c2nccnc12 [Embodiment 20],
0.89,Cc1cc(-c2c(-c3ccc(F)cc3)nc(N)c3cncnc23)cc(Cl)n1 [Embodiment 25],
0.56,Nc1nc(-c2ccccc2)c(-c2ccc3ncnn3c2)c2ncccc12 [Embodiment 27],
1.79,Cc1cc(-c2c(-c3ccc(F)cc3)nc(N)c3cccnc23)cc(Cl)n1 [Embodiment 11],
0.8,Nc1nc(-c2ccc(F)cc2)c(-c2cc(F)c3ncccc3c2)c2nccnc12 [Embodiment 17],
15.6,Nc1nc(-c2ccc(F)cc2)c(-c2ccc3nncn3c2)c2nccnc12 [Embodiment 9],

IC50 [1] [nM],Molecule,further results
3.18,Cn1ccc(-c2nc(N)c3nccnc3c2-c2ccc3ncnn3c2)n1 [Embodiment 29],
27.8,Nc1nc(-c2ccc(F)cc2)c(-c2ccc3nccnc3c2)c2nccnc12 [Embodiment 5],
26.8,Nc1nc(-c2ccc(F)cc2)c(-c2ccc3c(c2)CCCN3)c2nccnc12 [Embodiment 8],
0.58,Cc1ccc(-c2nc(N)c3nccnc3c2-c2ccc3ncnn3c2)o1 [Embodiment 31],
4.77,Cc1cc(-c2c(-c3ccc(F)cc3)nc(N)c3nccnc23)cc(C)n1 [Embodiment 1],bioavailability [2]: 57.6%; clearance [2]: 16.5 mL/min/kg; AUC [2]: 16.7 µM·h; half-life [2]: 36 min
0.54,Nc1nc(-c2ccc(F)cc2)c(-c2ccc3nccn3c2)c2nccnc12 [Embodiment 19],
1.04,Nc1nc(-c2ccc(F)cc2)c(-c2cc(Cl)c3ncnn3c2)c2nccnc12 [Embodiment 34],
1.73,Cc1cc(-c2c(-c3ccc(F)cc3)nc(N)c3nccnc23)cc(Cl)n1 [Embodiment 2],bioavailability [2]: 76.2%; clearance [2]: 17.1 mL/min/kg; AUC [2]: 20.3 µM·h; half-life [2]: 46.8 min
9.46,Nc1nc(-c2ccc(F)cc2)c(-c2cc(Cl)nc(C(F)(F)F)c2)c2nccnc12 [Embodiment 3],bioavailability [2]: 69%; clearance [2]: 18.1 mL/min/kg; AUC [2]: 15.7 µM·h; half-life [2]: 83.4 min
3.84,Cc1cc(-c2c(-c3ccc(Cl)cc3)nc(N)c3nccnc23)cc(Cl)n1 [Embodiment 15],
24,Cc1cc(-c2c(-c3ccc(Cl)s3)nc(N)c3nccnc23)cc(Cl)n1 [Embodiment 33],
1.8,Nc1nc(-c2ccc(Cl)s2)c(-c2ccc3ncnn3c2)c2nccnc12 [Embodiment 32],
9.4,Nc1nc(-c2ccc(F)cc2)c(-c2ccc3nnccc3c2)c2nccnc12 [Embodiment 13],
31.4,Nc1nc(-c2ccc(F)cc2)c(-c2ccn3ncnc3c2)c2nccnc12 [Embodiment 7],
78.8,Nc1nc(-c2ccc(F)cc2)c(-c2ccc3cnccc3c2)c2nccnc12 [Embodiment 18],
0.92,Nc1nc(-c2ccc(F)cc2)c(-c2cc(Cl)c3ncccc3c2)c2nccnc12 [Embodiment 26],
,"CS1003: full-length, fully humanized immunoglobulin G4 (IgG4) monoclonal antibody for PD-1 (antibody, chains of the INN, looked up, V domains shown) VH: QVQLVQSGAEVKKPGSSVKVSCKASGFTFTTYYISWVRQAPGQGLEYLGYINMGSGGTNYNEKFKGRVTITADKSTSTAYMELSSLRSEDTAVYYCAIIGYFDYWGQGTMVTVSS VL: DVVMTQSPLSLPVTLGQPASISCRSSQSLLDSDGGTYLYWFQQRPGQSPRRLIYLVSTLGSGVPDRFSGSGSGTDFTLKISRVEAEDVGVYYCMQLTHWPYTFGQGTKLEIK","tumor volume ([3]; 20th day after starting administration): 487.34+109.07 mm^3; tumor inhibition rate ([3]; 20th day, no significant difference vs control): 42.47%"
